Laboratory results from patent US20240399032A1, “HYDROGEL FOR PROMOTING GROWTH OF MESENCHYMAL STEM CELLS, AND PREPARATION METHOD AND APPLICATION METHOD THEREOF” (The Fifth People's Hospital of Hainan Province, priority 2023, published 2024).

Legend:
skin scratch model rat = assay: Treatment of wound of skin scratch model DM rat; format: in vivo; settings: applied daily on wound of left hindfoot; for time until wound healed: mecobalamin H1 group (wound without administration healed too), epalrestat M1 group (without administration healed on eighteenth day)
Protocol: 30 specific pathogen free (SPF) Sprague Dawley (SD) male rats aged 6-8 weeks old (weight 190 g or so) are used to construct as the DM rat model. Specifically, the STZ solution is prepared and used, and the prepared STZ solution is used within 10 minutes. The STZ solution is injected into left lower abdomens of the rats with a single dose of 55 milligrams per kilogram (mg/kg). After a week of the intraperitoneal injection of the STZ solution, the rats are in abrosia but can have water for 12 hours (h), thereafter blood glucose of the rats is detected, and the rats with blood glucose value above 12.6 […] are selected as the DM rat model. The 30 SPF SD male rats are all constructed as the DM rat model, 12 rats died before diabetic foot administration, and 2 rats died during the administration but not appearing effectiveness. Six DM model rats are selected for normal feeding for four weeks. After anesthesia, round skin wounds with each diameter of 5 mm are created on dorsal sides of hindfoots of the DM model rats to generate foot gangrene, as shown in FIG. 2. And then, the DM model rats continue to be fed regularly and the skin wounds of the DM model rats are observed every day. Therapeutic drug of mecobalamin (H1 group) is applied daily on the wound disposed on the left hindfoot of the skin scratch model rat, and then the wound of the model rat is observed. […] Therapeutic drug of epalrestat (M1 group) is applied daily on the wound disposed on the left hindfoot of the skin scratch model rat, and then the wound of the model rat is observed. After 13 days of continuous administration, the wound healed, and at the same time, the wound of the skin scratch model rat without administration healed on the eighteenth day. […] The hydrogels (T1 group, T2 group, T3 group, T4 group) are applied daily on the wounds disposed on the left hindfoots of four skin scratch model rats, and then the wounds of the 4 model rats are observed. […]

[1] = tested on: Staphylococcus aureus model rat; assay: Treatment of wound (foot gangrene) of Staphylococcus aureus model DM rat; format: in vivo; settings: applied daily on wound of left hindfoot
Protocol: 30 specific pathogen free (SPF) Sprague Dawley (SD) male rats aged 6-8 weeks old (weight 190 g or so) are used to construct as the DM rat model. Specifically, the STZ solution is prepared and used, and the prepared STZ solution is used within 10 minutes. The STZ solution is injected into left lower abdomens of the rats with a single dose of 55 milligrams per kilogram (mg/kg). After a week of the intraperitoneal injection of the STZ solution, the rats are in abrosia but can have water for 12 hours (h), thereafter blood glucose of the rats is detected, and the rats with blood glucose value above 12.6 […] are selected as the DM rat model. The 30 SPF SD male rats are all constructed as the DM rat model, 12 rats died before diabetic foot administration, and 2 rats died during the administration but not appearing effectiveness. Six DM model rats are selected. At the third week, dorsal sides of hindfoots of the DM model rats are subcutaneously injected 10 μL of suspension containing more than […] Staphylococcus aureus, thereby obtaining a DM animal model with foot infection (also referred to as extremity infection). It can be seen from FIG. 1, on the sixth day, spontaneous foot gangrene occurs, and on the seventh day and eighth day, the foot gangrene is gradually obvious. […]

SMILES	time until wound healed (skin scratch model rat) [days]	effect on wound healing (skin scratch model rat; H1, M1, T1-T4 groups)	time of administration until wound / foot gangrene healed ([1]; mecobalamin H4 group (untreated wound healed as well), hydrogel T10 group (control healed after 7 days)) [days]	healing of treated wound compared with untreated wound / control group ([1]; mecobalamin H4 group, hydrogel T10 group, same area of foot gangrene)
CC(/C=C1\SC(=S)N(CC(=O)O)C1=O)=C\c1ccccc1 [epalrestat, Epalrestat]	13			
C/C1=C2/[N-][C@H]([C@H](CC(N)=O)[C@@]2(C)CCC(=O)NC[C@@H](C)OP(=O)([O-])O[C@H]2[C@@H](O)[C@@H](n3cnc4cc(C)c(C)cc43)O[C@@H]2CO)[C@]2(C)N=C(/C(C)=C3N=C(/C=C4N=C1[C@@H](CCC(N)=O)C\4(C)C)[C@@H](CCC(N)=O)[C@]\3(C)CC(N)=O)[C@@H](CCC(N)=O)[C@]2(C)CC(N)=O.[CH3-].[Co+3] [mecobalamin, Mecobalamin]	11	no significant promoting effect	5	no significant difference
